What was measured:
[1] = Time-resolved emission spectroscopy (luminescence decay kinetics); format: physicochemical; settings: degassed dichloromethane; excited 355 nm, monitored 560 nm
Experimental: Time-resolved emission spectroscopy was used to characterize the MLCT excited state of the D-B-A complex. Luminescence decay kinetics were recorded in degassed dichloromethane. The D-B-A complex was excited at 355 nm with an 8-ns laser pulse and luminescence was monitored at 560 nm. […] For comparison, the MLCT lifetime of the reference complex, [Re(CO)3(bpy)(py)]+, determined under identical experimental conditions, is 550 ns.
While the rate of intramolecular ET is concentration independent, intermolecular quenching processes vary predictably with concentration. As such, it is possible to separate the two quenching mechanisms and obtain rate constants for each. Time-resolved luminescence measurements at a series of D-B-A concentrations allow a second order intermolecular quenching rate to be determined. As the concentration was increased, shorter lifetimes were recorded in both dichloromethane and acetonitrile.
This lifetime includes both the natural decay of the photoexcited rhenium as well as quenching through intramolecular electron transfer. […] As the difference in lifetime of the D-B-A and model complex is quite small, these values should be considered upper bounds.

chromaffin cells = experiment: Cell-attached membrane perforation test (capacitive charging transient); format: cell-based, mouse; settings: positive control in pipette; within 5 minutes of gigaseal formation
From the text: FIGS. 5A-5H depict data from various experiments related to characteristics of RubpyC17-loaded cells. […] Inset images shown to the right of trace confirmed proper integration of RubpyC17 in patched cells. FIGS. 5C-5E show the light-induced action potential firing in chromaffin cells was not due to biophysical changes in voltage-gated ion channels as there were no significant changes in current-voltage relationships (C-D) nor in steady-state activation curve (E) in RubpyC17-loaded chromaffin cells before (open circle) or during ([…]) light illumination. […] Peak inward currents from each stimulation jump were plotted against corresponding stimulating voltages (n=6). […] Data from representative cell is shown (n=5). […] Currents resulting from capacitor-like behavior of chromaffin cell membranes during hyperpolarizing jumps to −85 mV from a resting membrane potential of −80 mV were recorded 5 min following giga-seal formation for amphoterecin B (bottom trace) or 10 min following giga-seal formation for RubpyC17 (top trace).
Finally, to test whether illumination of RubpyC17 incorporated in cell membranes causes nonspecific membrane poration or other damage, 18 μM RubpyC17 was loaded inside a patch pipette and attached to a cell (gigaseal formation) in the cell-attached configuration. […]

Row | Structure (SMILES) | luminescence (MLCT) lifetime [1] | capacitive charging transient (membrane perforation) (chromaffin cells)
1 | [C-]#[O+].[C-]#[O+].[C-]#[O+].[Re+].c1ccc(-c2ccccn2)nc1.c1ccncc1 [[Re(CO)3(bpy)(py)]+] | 550 ns | 
2 | C[C@@H]1[C@H](O)[C@@H](C)/C=C/C=C/C=C/C=C/C=C/C=C/C=C/[C@H](O[C@@H]2O[C@H](C)[C@@H](O)[C@H](N)[C@@H]2O)C[C@@H]2O[C@](O)(C[C@@H](O)C[C@@H](O)[C@H](O)CC[C@@H](O)C[C@@H](O)CC(=O)O[C@H]1C)C[C@H](O)[C@H]2C(=O)O [amphotericin B, reference compound] |  | a sizable capacitive charging transient

Reference: patent US10406227B2, “Photoactivated molecules for light-induced modulation of the activity of electrically excitable cells and methods of using same” (University of Southern California, priority 2012, dated 2019)
